Experimental data: PMC10975012, “The Active Glucuronide Metabolite of the Brain Protectant IMM-H004 with Poor Blood–Brain Barrier Permeability Demonstrates a High Partition in the Rat Brain via Multiple Mechanisms” (Pharmaceutics, 2024)
Where two headings read alike, the source gives them in different places.

Legend:
[1] = target: T1, OATP2B1 (Homo sapiens, UniProt O94956); assay: Uptake in MDCKⅡ-OATP2B1 overexpressing cells; assay type: cell-based; conditions: MDCKⅡ-OATP2B1 vs mock, 10 min; IMM-H004G 10 μmol/L
T1 construct: host or cells: MDCKII
T1 sequence (O94956 1-709): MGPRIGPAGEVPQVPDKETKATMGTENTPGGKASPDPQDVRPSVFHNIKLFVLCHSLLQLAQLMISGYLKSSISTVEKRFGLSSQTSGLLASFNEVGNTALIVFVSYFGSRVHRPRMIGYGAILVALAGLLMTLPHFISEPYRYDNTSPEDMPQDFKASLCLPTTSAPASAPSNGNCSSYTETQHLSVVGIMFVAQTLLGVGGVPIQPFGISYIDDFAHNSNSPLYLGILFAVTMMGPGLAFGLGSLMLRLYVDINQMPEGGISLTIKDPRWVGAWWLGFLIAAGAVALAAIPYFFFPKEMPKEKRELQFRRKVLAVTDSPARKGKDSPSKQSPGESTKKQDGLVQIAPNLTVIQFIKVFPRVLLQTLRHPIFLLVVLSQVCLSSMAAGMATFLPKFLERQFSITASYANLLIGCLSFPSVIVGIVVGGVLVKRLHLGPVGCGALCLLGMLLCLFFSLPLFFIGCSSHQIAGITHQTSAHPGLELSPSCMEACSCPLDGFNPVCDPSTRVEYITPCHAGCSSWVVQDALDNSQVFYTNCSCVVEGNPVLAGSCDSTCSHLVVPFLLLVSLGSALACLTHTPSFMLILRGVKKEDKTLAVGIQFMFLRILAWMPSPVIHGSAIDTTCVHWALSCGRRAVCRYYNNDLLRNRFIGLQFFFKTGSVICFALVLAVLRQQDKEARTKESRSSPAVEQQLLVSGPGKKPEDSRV
Description: CHO cells and MDCKⅡ cells were stably transfected with lentiviruses carrying human SCLO1A2 (encoding OATP1A2) and SCLO2B1 (encoding OATP2B1), respectively. Cell transfected with lentiviruses carrying empty vectors served as control. Lentiviral plasmid packages were obtained from OBiO Technology (Shanghai, China), and procedures followed the instructions of the virus manual. Stably transfected cells were routinely grown in a 100 mm dish in DMEM with 10% fetal bovine serum. Prior to the experiments, the seeding density of the overexpressing cells in 24-well plates was 4 × 10^5 cells per well, and the medium was supplemented with 2 mM sodium butyrate for 24 h. The cultured cells were washed twice with prewarmed HBSS after removing the medium and then treated with 10 μmol/L IMM-H004G and 100 μmol/L rifampicin (or an equal amount of solvent dimethyl sulfoxide) for 10 min. After incubation, the cells were washed four times with cold HBSS. Follow-up sample processing procedures were as described in Section 2.3.1. E17βG (5 μmol/L) and rosuvastatin (10 μmol/L) were used as positive substrates in CHO-OATP1A2 and MDCKⅡ-OATP2B1 cells, respectively. The MDCKⅡ-MDR1 cells were previously established by our laboratory.

[2] = target: T2, OATP1B3 (Homo sapiens, UniProt Q9NPD5); assay: Uptake in MDCKⅡ-OATP1B3 cells; assay type: cell-based; conditions: MDCKⅡ-OATP1B3, 30, 60 µmol/L, 20 or 40 min
T2 construct: expressed in transfected cells; host or cells: MDCKII
T2 sequence (Q9NPD5 1-702): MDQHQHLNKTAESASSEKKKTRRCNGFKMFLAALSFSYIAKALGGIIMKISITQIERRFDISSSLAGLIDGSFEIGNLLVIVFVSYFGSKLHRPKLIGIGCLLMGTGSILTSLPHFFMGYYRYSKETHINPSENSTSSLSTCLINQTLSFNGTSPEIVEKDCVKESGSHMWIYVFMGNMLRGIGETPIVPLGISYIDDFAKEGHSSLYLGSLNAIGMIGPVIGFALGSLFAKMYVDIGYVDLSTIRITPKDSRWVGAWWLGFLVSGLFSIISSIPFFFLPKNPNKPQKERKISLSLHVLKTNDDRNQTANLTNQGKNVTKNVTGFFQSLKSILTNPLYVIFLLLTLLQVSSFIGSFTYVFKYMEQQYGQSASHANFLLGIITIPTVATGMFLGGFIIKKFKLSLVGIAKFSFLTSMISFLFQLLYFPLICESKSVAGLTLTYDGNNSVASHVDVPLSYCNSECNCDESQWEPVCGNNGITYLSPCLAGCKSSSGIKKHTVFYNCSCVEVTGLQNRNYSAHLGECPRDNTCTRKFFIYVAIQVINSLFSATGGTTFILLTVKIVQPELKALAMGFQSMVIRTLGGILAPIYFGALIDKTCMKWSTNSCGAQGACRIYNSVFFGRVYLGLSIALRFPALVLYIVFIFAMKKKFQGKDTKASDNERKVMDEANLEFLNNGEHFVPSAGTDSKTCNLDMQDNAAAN
Experimental: Figure S4 Uptake of IMM-H004G in MDCKⅡ-OATP1B1 and MDCKⅡ-OATP1B3 cells. (a)
RSV (rosuvastatin, 30 µmol/L) is used as a positive group in MDCKⅡ-OATP1B1 cells. (b)
E17βG (estradiol-17β-glucuronide, 5 µmol/L) is used as a positive group in
MDCKⅡ-OATP1B3 cells. (c) IMM-H004G (30, 60 µmol/L) was incubated with
MDCKⅡ-OATP1B1 and MDCKⅡ-OATP1B3 cells for 20 or 40 min. The OATP
pan-inhibitor CsA (cyclosporin A) is 10 µmol/L. n=3 for positive substrates, and n=2 for
IMM-H004G. ***p < 0.001, **p < 0.01, *p < 0.05 vs. control group. ns, not significant.
(1 picture or pasted object on this page, not shown here)

[3] = system: P-gp; assay: Bidirectional transport in MDCKⅡ-MDR1 cell monolayers; assay type: in vitro ADME; conditions: dog
Experimental: To further validate the effect of P-gp on the transport of IMM-H004G or IMM-H004, MDCKⅡ-MDR1 cells were seeded onto polycarbonate membrane transwell inserts in 24-well plates and used for transport studies after 5 days or when the effective transepithelial electric resistance (TEER) values exceeded 300 Ω·cm^2. The monolayers were initially rinsed twice with HBSS. Subsequently, IMM-H004G or IMM-H004 (10 µmol/L) was added to either the apical or basolateral side of the monolayer. Aliquots of 50 µL were collected from the opposite compartment at various time points, covering a maximum duration of 120 min. Digoxin (5 μmol/L) was used as a positive substrate, while PSC833 (5 µmol/L) was used as an inhibitor in MDCKⅡ-MDR1 cells. The apparent permeability value (Papp) was calculated using the following equation:(2) Papp=dQ/dt/AC0 where dQ/dt is the slope of the cumulative transport amount over time during the study period. A is the base area of the insert, and C0 is the initial addition concentration.
The efflux ratio (ER) was calculated as follows:ER = Papp(B−A)/Papp(A−B) (3)

| uptake increase in OATP2B1-overexpressing cells compared to control cells [1] | uptake increase in OATP1B3-overexpressing cells compared to control cells [2] | efflux ratio at 120 min ([3]; MDCK-MDR1, with PSC833 5 µmol/L, MDCKⅡ-MDR1, PSC833 5 µmol/L, read-out: efflux ratio (ER) in the presence of PSC833) | efflux ratio at 120 min ([3]; MDCK-MDR1, MDCKⅡ-MDR1, no inhibitor, IMM-H004 10 µmol/L, digoxin 5 μmol/L, read-out: efflux ratio (ER)) | Compound |
| --- | --- | --- | --- | --- |
| 190 fold | did not exceed a tenfold increase | – | – | COc1cc(OC2OC(C(=O)O)C(O)C(O)C2O)cc2oc(=O)c(N3CCN(C)CC3)c(C)c12 (stereo not shown) [IMM-H004G] |
| – | – | 1.1 | 2.96 | COc1cc(O)cc2oc(=O)c(N3CCN(C)CC3)c(C)c12 [IMM-H004] |
